Patent US20110105472A1, “Diaminopyrimidines as crop protection agents” (Bayer CropScience AG, priority 2008, published 2011)

Test system: Abutilon theophrasti (velvetleaf)
Assay: Herbicidal post-emergence action (PO), ABUTH
Format: in vivo
Settings: dose 1000 g/ha, rated visually after about 2 weeks
Protocol: (§1) 2. Herbicidal Post-Emergence Action (═PO)
(§2) Seeds of monocotyledonous and dicotyledonous harmful plants are placed in sandy loam, covered with soil and cultivated in a greenhouse under good growth conditions. About 2 weeks after sowing, the test plants are treated at the one-leaf stage. To this end, the compounds according to the invention, formulated as emulsion concentrates (EC), as an aqueous emulsion with a water application rate of 800 l/ha (converted), are sprayed onto the green parts of the plants. After the test plants have been kept in the greenhouse under optimum growth conditions for about 2 weeks, the effect of the preparations is rated visually in comparison to untreated controls (herbicidal effect in percent (%): 100% effect=the plants have died, 0% effect=like control plants). CAPBP=Capsella bursa-pastoris (shepherd's purse), STEME=Stellaria media (common chickweed), ABUTH=Abutilon theophrasti (velvetleaf), AMARE=Amaranthus retroflexus (redroot pigweed)
For `COc1cc(Nc2ncc(Br)c(NC3CCC3)n2)cc(OC)c1OC` [Compound 38], the “herbicidal effect ABUTH” value was 70%.
With `CCOC(=O)Cc1ccc(Nc2ncc(Br)c(NC3CCC3)n2)cc1` [Compound 148] the “herbicidal effect ABUTH” value was 70%.

Test system: Amaranthus retroflexus (redroot pigweed)
Assay: Herbicidal post-emergence action (PO), AMARE
Format: in vivo
Settings: dose 1000 g/ha, rated visually after about 2 weeks
Protocol: as §1, §2
For `O=C1COCCN1c1ccc(Nc2ncc(Br)c(NC3CCC3)n2)cc1` [Compound 50], the “herbicidal effect AMARE” value was 70%.
For `CC(=O)N(C)c1ccc(Nc2ncc(Cl)c(NC3CCC3)n2)cc1` [Compound 120], the “herbicidal effect AMARE” value was 90%.
For `CC(=O)Nc1cccc(Nc2ncc(Br)c(NC3CCC3)n2)c1` [Compound 96], the “herbicidal effect AMARE” value was 70%.
With `O=C1CCCN1c1cccc(Nc2ncc(Br)c(NC3CCC3)n2)c1` [Compound 45] the “herbicidal effect AMARE” value was 70%.
With `CN(C)C(=O)c1ccc(Nc2ncc(Br)c(NC3CCC3)n2)cc1` [Compound 100] the “herbicidal effect AMARE” value was 70%.
In the case of `COc1cc(Nc2ncc(Br)c(NC3CCC3)n2)cc(OC)c1OC` [Compound 38], the “herbicidal effect AMARE” value was 90%.
In the case of `CCOC(=O)Cc1ccc(Nc2ncc(Br)c(NC3CCC3)n2)cc1` [Compound 148], the “herbicidal effect AMARE” value was 90%.
In the case of `CS(=O)(=O)Nc1cccc(Nc2ncc(Br)c(NC3CCC3)n2)c1` [Compound 87], the “herbicidal effect AMARE” value was 80%.
In the case of `CN(C)C(=O)c1cccc(Nc2ncc(Br)c(NC3CCC3)n2)c1` [Compound 155], the “herbicidal effect AMARE” value was 70%.
With `CSc1cccc(Nc2ncc(Cl)c(NC3CCC3)n2)c1` [Compound 128] the “herbicidal effect AMARE” value was 90%.
With `CC(=O)Nc1cccc(Nc2ncc(Cl)c(NC3CCC3)n2)c1` [Compound 123] the “herbicidal effect AMARE” value was 100%.
For `N#CCC(=O)c1ccc(Nc2ncc(Br)c(NC3CCC3)n2)cc1` [Compound 149], the “herbicidal effect AMARE” value was 90%.

Test system: Capsella bursa-pastoris (shepherd's purse)
Assay: Herbicidal post-emergence action (PO), CAPBP
Format: in vivo
Settings: dose 1000 g/ha, rated visually after about 2 weeks
Protocol: as §1, §2
In the case of `CSc1cccc(Nc2ncc(Br)c(NC3CCC3)n2)c1` [Compound 44], the “herbicidal effect CAPBP” value was 80%.
In the case of `CC(=O)N(C)c1ccc(Nc2ncc(Cl)c(NC3CCC3)n2)cc1` [Compound 120], the “herbicidal effect CAPBP” value was 70%.
For `CSc1ccc(Nc2ncc(Cl)c(NC3CCC3)n2)cc1` [Compound 129], the “herbicidal effect CAPBP” value was 70%.
With `CC(=O)Nc1cccc(Nc2ncc(Br)c(NC3CCC3)n2)c1` [Compound 96] the “herbicidal effect CAPBP” value was 90%.
For `O=C1CCCN1c1cccc(Nc2ncc(Br)c(NC3CCC3)n2)c1` [Compound 45], the “herbicidal effect CAPBP” value was 70%.
For `CN(C)C(=O)c1ccc(Nc2ncc(Br)c(NC3CCC3)n2)cc1` [Compound 100], the “herbicidal effect CAPBP” value was 70%.
For `CCOC(=O)Cc1ccc(Nc2ncc(Br)c(NC3CCC3)n2)cc1` [Compound 148], the “herbicidal effect CAPBP” value was 80%.
For `O=c1[nH]c2ccc(Nc3ncc(Br)c(NC4CCC4)n3)cc2o1` [Compound 5], the “herbicidal effect CAPBP” value was 70%.
For `CN(C)C(=O)c1cccc(Nc2ncc(Br)c(NC3CCC3)n2)c1` [Compound 155], the “herbicidal effect CAPBP” value was 80%.
In the case of `CSc1cccc(Nc2ncc(Cl)c(NC3CCC3)n2)c1` [Compound 128], the “herbicidal effect CAPBP” value was 80%.
For `CC(=O)Nc1cccc(Nc2ncc(Cl)c(NC3CCC3)n2)c1` [Compound 123], the “herbicidal effect CAPBP” value was 80%.
With `N#CCC(=O)c1ccc(Nc2ncc(Br)c(NC3CCC3)n2)cc1` [Compound 149] the “herbicidal effect CAPBP” value was 90%.

Test system: Stellaria media (common chickweed)
Assay: Herbicidal post-emergence action (PO), STEME
Format: in vivo
Settings: dose 1000 g/ha, rated visually after about 2 weeks
Protocol: as §1, §2
In the case of `CSc1cccc(Nc2ncc(Br)c(NC3CCC3)n2)c1` [Compound 44], the “herbicidal effect STEME” value was 70%.
In the case of `O=C1COCCN1c1ccc(Nc2ncc(Br)c(NC3CCC3)n2)cc1` [Compound 50], the “herbicidal effect STEME” value was 80%.
With `CSc1ccc(Nc2ncc(Cl)c(NC3CCC3)n2)cc1` [Compound 129] the “herbicidal effect STEME” value was 70%.
For `CC(=O)Nc1cccc(Nc2ncc(Br)c(NC3CCC3)n2)c1` [Compound 96], the “herbicidal effect STEME” value was 70%.
For `O=C1CCCN1c1cccc(Nc2ncc(Br)c(NC3CCC3)n2)c1` [Compound 45], the “herbicidal effect STEME” value was 80%.
For `CN(C)C(=O)c1ccc(Nc2ncc(Br)c(NC3CCC3)n2)cc1` [Compound 100], the “herbicidal effect STEME” value was 70%.
For `CCOC(=O)Cc1ccc(Nc2ncc(Br)c(NC3CCC3)n2)cc1` [Compound 148], the “herbicidal effect STEME” value was 70%.
In the case of `CS(=O)(=O)Nc1cccc(Nc2ncc(Br)c(NC3CCC3)n2)c1` [Compound 87], the “herbicidal effect STEME” value was 70%.
With `O=c1[nH]c2ccc(Nc3ncc(Br)c(NC4CCC4)n3)cc2o1` [Compound 5] the “herbicidal effect STEME” value was 70%.
For `CN(C)C(=O)c1cccc(Nc2ncc(Br)c(NC3CCC3)n2)c1` [Compound 155], the “herbicidal effect STEME” value was 80%.
For `CSc1cccc(Nc2ncc(Cl)c(NC3CCC3)n2)c1` [Compound 128], the “herbicidal effect STEME” value was 90%.
In the case of `CC(=O)Nc1cccc(Nc2ncc(Cl)c(NC3CCC3)n2)c1` [Compound 123], the “herbicidal effect STEME” value was 70%.
With `N#CCC(=O)c1ccc(Nc2ncc(Br)c(NC3CCC3)n2)cc1` [Compound 149] the “herbicidal effect STEME” value was 70%.

Test system: not listed separately
Assay: logP by LC-MS, method [b], acidic range pH 2.7
Format: physicochemical
Settings: pH 2.7
With `CSc1cccc(Nc2ncc(Br)c(NC3CCC3)n2)c1` [Compound 44] the log p was 2.92[b].
With `O=C1COCCN1c1ccc(Nc2ncc(Br)c(NC3CCC3)n2)cc1` [Compound 50] the log p was 1.53[b].
With `CC(=O)N(C)c1ccc(Nc2ncc(Cl)c(NC3CCC3)n2)cc1` [Compound 120] the log p was 1.64[b].
In the case of `CSc1ccc(Nc2ncc(Cl)c(NC3CCC3)n2)cc1` [Compound 129], the log p was 2.33[b].
In the case of `CC(=O)Nc1cccc(Nc2ncc(Br)c(NC3CCC3)n2)c1` [Compound 96], the log p was 1.54[b].
With `O=C1CCCN1c1cccc(Nc2ncc(Br)c(NC3CCC3)n2)c1` [Compound 45] the log p was 1.84[b].
In the case of `CN(C)C(=O)c1ccc(Nc2ncc(Br)c(NC3CCC3)n2)cc1` [Compound 100], the log p was 1.73[b].
With `COc1cc(Nc2ncc(Br)c(NC3CCC3)n2)cc(OC)c1OC` [Compound 38] the log p was 2.04[b].
For `CCOC(=O)Cc1ccc(Nc2ncc(Br)c(NC3CCC3)n2)cc1` [Compound 148], the log p was 2.3[b].
For `CS(=O)(=O)Nc1cccc(Nc2ncc(Br)c(NC3CCC3)n2)c1` [Compound 87], the log p was 1.73[b].
In the case of `O=c1[nH]c2ccc(Nc3ncc(Br)c(NC4CCC4)n3)cc2o1` [Compound 5], the log p was 1.59[b].
For `CN(C)C(=O)c1cccc(Nc2ncc(Br)c(NC3CCC3)n2)c1` [Compound 155], the log p was 1.68[b].
In the case of `CSc1cccc(Nc2ncc(Cl)c(NC3CCC3)n2)c1` [Compound 128], the log p was 2.46[b].
With `CC(=O)Nc1cccc(Nc2ncc(Cl)c(NC3CCC3)n2)c1` [Compound 123] the log p was 1.51[b].
With `N#CCC(=O)c1ccc(Nc2ncc(Br)c(NC3CCC3)n2)cc1` [Compound 149] the log p was 2.57[b].
